Tested on: PPM tumors (Trp53−/−; Pten−/−; c-Myc)
Experiment: Orthotopic PPM tumor growth (bioluminescence)
Conditions: mouse, in vivo
Procedure: All animal experiments described in this study were performed according to the animal protocols approved by the DFCI Institutional Animal Care and Use Committee. Brca1^loxP/loxP [FVB/N] mice, bearing loxP sites in introns 4 and 13 of the Brca1 gene, and Trp53^loxP/loxP[FVB/N] mice bearing loxP in introns 2 and 10 of the p53 gene, were obtained from Dr. Jos Jonkers's laboratory (Netherlands Cancer Institute, Amsterdam, The Netherlands). These mice were intercrossed through multiple generations to create a colony of homozygous Trp53^loxP/loxP/Brca1^loxP/loxP double conditional knockout mice. Ovaries were harvested from 8-week-old female Trp53^loxP/loxP/Brca1^loxP/loxP mice. The ovaries were washed twice with phosphate-buffered and incubated in DMEM/F12 (Ham's) medium containing collagenase and dispase (stem cell technologies) for 40 min at 37° C. […]
Single cells were obtained by digestion of primary ovarian tumors in collagenase buffer and then cultured in MOT media (DMEM/F12, 0.6% FBS, 10 ng/ml EGF, hydrocortisone 1 μg/ml, cholera toxin 1 ng/ml, 100 μg/ml penicillin-streptomycin, 5 μM Y27632). […] The endpoints were determined by tumor burden and ascites. […]

Q: `O=C(c1cc(Cc2n[nH]c(=O)c3ccccc23)ccc1F)N1CCN(C(=O)C2CC2)CC1` [olaparib, Olaparib] was tested. Which “progression of Brca-proficient PPM tumors” value did it give?
A: little effect and not
